Data reported in BindingDB's records for doi:10.1016/j.bmcl.2007.01.009 (Karo Bio, 2007).

Target: T1, Thyroid hormone receptor alpha (Homo sapiens, UniProt P10827)
T1 sequence (P10827 whole entry): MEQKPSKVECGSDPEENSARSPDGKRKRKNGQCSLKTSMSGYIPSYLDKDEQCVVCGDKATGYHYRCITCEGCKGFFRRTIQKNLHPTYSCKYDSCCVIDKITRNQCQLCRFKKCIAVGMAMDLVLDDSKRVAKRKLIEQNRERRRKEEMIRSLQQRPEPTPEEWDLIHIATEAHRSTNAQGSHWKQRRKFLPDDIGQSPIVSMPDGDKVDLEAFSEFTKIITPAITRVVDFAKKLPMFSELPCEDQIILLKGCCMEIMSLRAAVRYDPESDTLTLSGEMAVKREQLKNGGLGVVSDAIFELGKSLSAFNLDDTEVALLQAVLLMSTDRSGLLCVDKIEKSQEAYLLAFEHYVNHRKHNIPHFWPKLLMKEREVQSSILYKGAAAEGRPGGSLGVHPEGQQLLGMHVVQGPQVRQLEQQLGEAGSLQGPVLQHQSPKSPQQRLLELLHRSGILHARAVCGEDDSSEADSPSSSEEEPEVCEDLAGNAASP
Test: TRalpha-Binding Assay and Thyroid Response Element (TRAFalpha1) Reporter Assay.
Settings: pH 7; 4 °C
Source text: EC50 is the concentration of compound required to reach or inhibit (agonist or antagonist) 50% of T3-induced TRalpha-activation in CHOK1 cells stably transfected with hTRalpha using alkaline phosphatase reporter assay.

With `O=C(O)CCc1cc(Br)c(OCc2cccc(Br)c2)c(Br)c1` [3-{3,5-dibromo-4-[(3-bromophenyl)methoxy]phenyl}propanoic acid] the EC50 was 380 nM.
